Measured values reported in EP0420120A2, “Optically active benzyl alcohol compound and pharmaceutical composition” (HOKURIKU PHARMACEUTICAL CO., LTD., priority 1989, dated 1991).

How the values were obtained:
[1] = test system: isolated uterine smooth muscle; experiment: Effects on isolated uterine smooth muscle of rats (relaxation of oxytocin pre-contracted preparations); assay type: cell-based
Protocol: Non-pregnant female Wistar rats weighing about 200 g were killed and the uteruses were isolated. Each uterine preparation (15 mm in length) was mounted vertically in an organ bath containing modified Locke-Ringer solution of following composition: 150 mM NaCl, 5.4 mM KCl, 0.36 mM CaCl₂, 0.19 mM MgCl₂, 4.8 mM NaHCO₃, 0.15 mM KH₂ PO₄, 0.56 mM Na₂ HPO₄ and 2.8 mM Glucose. The bath medium was maintained at 37 °C and was equilibrated with a gas mixture consisting of 95% O₂ + 5% CO₂. The uterine preparations were pre-contracted with oxytocin (10 ⁻² U/ml) and the muscle relaxations induced by the test compounds were recorded isotonically. The test compounds were added cumulatively to the bath. ED₅₀ values for concentration-response curves which produce 50% relaxations of the maximal relaxations (10 ⁻⁶ M isoproterenol) were calculated.

isolated atrium = experiment: Effects on isolated atrium of guinea-pigs (spontaneous beating rate of right atrium); assay type: cell-based
Protocol: Male Hartley guinea-pigs weighing about 500 g were killed and the atria were isolated. Each right atrium was mounted vertically in an organ bath containing Krebs-Henseleit solution and the spontaneous beating rate was recorded. The bath medium was maintained at 30°C and was equilibrated with a gas mixture consisting of 95% O₂ + 5% CO₂. The test compounds were added cumulatively to the bath. ED₅₀ values for concentration-response curves which produce 50% increases of the basal spontaneous beating rate were calculated. The results are shown in Table 3 The selcctive relaxing activities of the compound of the present invention on the uterine and the bladder smooth muscle were compared with positive chronotropic effect in the atrium.

With `CC(C)(C)NCC(O)c1ccc(O)cc1Cl` (single isomer, unassigned; (-)) [(-)-enantiomer, (-)-α -[(tert-Butylamino)methyl]-2-chloro-4-hydroxybenzyl alcohol] the “effect relative to ritodrine” value ([1]; from the ED₅₀ values of Table 1, fold greater than ritodrine) was about 25 fold, the “effect relative to the (+)-enantiomer” value ([1]; from the ED₅₀ values of Table 1, fold greater than the (+)-enantiomer) was “about 130 fold” and the “Selectivity Bladder” value (isolated atrium; ED₅₀ value (positive chronotropic effect in the atrium) / ED₅₀ value (relaxing effect on the bladder smooth muscle)) was 462. For the same compound, the “Selectivity Uterus” value (isolated atrium; ED₅₀ value (positive chronotropic effect in the atrium) / ED₅₀ value (relaxing effect on the uterine smooth muscle)) was 21.
